Experimental data reported in paper PMC9300923 (Frontiers in Pharmacology, 2022).

B1: Streptolysin O (natural protein, UniProt P0C0I3 78-571, looked up)
chain: LAPKEMPLESAEKEEKKSEDKKKSEEDHTEEINDKIYSLNYNELEVLAKNGETIENFVPKEGVKKADKFIVIERKKKNINTTPVDISIIDSVTDRTYPAALQLANKGFTENKPDAVVTKRNPQKIHIDLPGMGDKATVEVNDPTYANVSTAIDNLVNQWHDNYSGGNTLPARTQYTESMVYSKSQIEAALNVNSKILDGTLGIDFKSISKGEKKVMIAAYKQIFYTVSANLPNNPADVFDKSVTFKELQRKGVSNEAPPLFVSNVAYGRTVFVKLETSSKSNDVEAAFSAALKGTDVKTNGKYSDILENSSFTAVVLGGDAAEHNKVVTKDFDVIRNVIKDNATFSRKNPAYPISYTSVFLKNNKIAGVNNRTEYVETTSTEYTSGKINLSHQGAYVAQYEILWDEINYDDKGKEVITKRRWDNNWYSKTSPFSTVIPLGANSRNIRIMARECTGLAWEWWRKVIDERDVKLSKEINVNISGSTLSPYGSITYK
notes: Streptolysin O of Group A Streptococcus (Streptococcus pyogenes), amplified from DNA of GAS strain M1; After the BamHI site the forward primer encodes LAPKEMP; The reverse primer runs to the natural stop codon (...YGSITYK-stop); Surmise: cloning into the BamHI/SacI sites of pET28a with the gene's own stop codon would give an N-terminal His6-thrombin site-T7 tag leader; also called SLO; SLO protein

What was measured:
SLY (Suilysin) = SLY (Suilysin) (Streptococcus suis, UniProt Q55996); assay: biochemical
SLY (Suilysin), sequence (Q55996 28-497 limits assumed): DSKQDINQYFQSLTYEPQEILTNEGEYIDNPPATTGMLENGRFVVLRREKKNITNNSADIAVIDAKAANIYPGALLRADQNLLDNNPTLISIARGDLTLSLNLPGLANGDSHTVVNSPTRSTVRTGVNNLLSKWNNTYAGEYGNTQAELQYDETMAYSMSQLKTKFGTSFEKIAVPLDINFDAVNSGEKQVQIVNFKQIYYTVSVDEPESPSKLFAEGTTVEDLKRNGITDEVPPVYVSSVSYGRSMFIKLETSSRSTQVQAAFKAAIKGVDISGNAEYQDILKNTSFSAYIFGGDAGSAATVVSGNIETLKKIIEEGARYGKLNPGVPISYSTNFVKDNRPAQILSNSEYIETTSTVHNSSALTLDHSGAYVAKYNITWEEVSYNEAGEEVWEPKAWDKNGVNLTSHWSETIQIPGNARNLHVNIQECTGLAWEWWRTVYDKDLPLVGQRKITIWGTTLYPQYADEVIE

[1] = biological target: the molecule itself; assay: SDS-PAGE without beta-mercaptoethanol + Western blot of oligomers; purified SLO incubated with or without luteolin at different concentrations, 37°C for 30 min; then 40°C for 10 min in 1x SDS-PAGE loading buffer without β-ME; blot with rabbit polyclonal anti-Streptolysin O; oligomer/monomer ratio by densitometry

Molecule | Kd (SLY (Suilysin)) [nM] | binding result [1]
O=c1cc(-c2ccc(O)c(O)c2)oc2cc(O)cc(O)c12 [Luteolin] | 554 | 
B1 |  | binds
